According to PMC3388080 (PLoS ONE, 2012):

Experiments:
[1] = system: panel of 79 target receptors; experiment: CEREP selectivity screen, panel of 79 target receptors; format: binding; details: 10 µM; all targets except A2A, A3, MT3, P2Y, 5HT2C
Experimental: SB-334867 was evaluated in a selectivity screen performed at CEREP (Paris, France). The screen consisted of binding assays on a panel of 79 target receptors. The specific binding (SB) of a radioligand to each target receptor was defined as the difference between the total binding and the nonspecific binding determined in the presence of a cold competitor in excess. […] Details on the CEREP screen are available from www.cerep.fr.
Among the 79 receptors tested, 30 were peptide receptors. […] The selectivity profiles of almorexant and EMPA [37] have been reported previously.

in vivo = details: male, Sprague-Dawley, rat
Experimental: This study was performed at F. Hoffmann-La Roche. Sixty-five male Sprague-Dawley rats, housed 5 per cage (light onset: 12∶00), were injected intraperitoneally (ip) with either vehicle (1.25% hydroxypropyl methylcellulose (HPMC), 0.1% docusate sodium) or almorexant (30 mg/kg in 1.25% HPMC, 0.1% docusate sodium) at the mid-dark phase (ZT18; i.e., 6 h after lights-off), and returned to their home cage. Groups (n = 5 per group) of vehicle- or almorexant-treated animals were then sacrificed by decapitation 0.5, 2, 4, 8 or 12 h after the injection. An extra group of non-injected rats (n = 5) was also sampled at ZT18. Plasma was collected and stored at −80°C until assayed. Brains were rapidly dissected, frozen on dry ice, and stored at −80°C. Series of coronal brain sections (14 µm) were cut in a cryostat through the posterior hypothalamus (tuberomammillary nucleus level: 3.8 to 4.2 mm posterior to bregma) and the brain stem (dorsal raphe nucleus level: 7.3 to 8 mm posterior to bregma; locus coeruleus level: −9.3 to −10 mm posterior to bregma), thaw-mounted (6 sections per slide) and stored at −20°C. After sectioning, the remaining pieces of brain were kept at −80°C for later determination of almorexant brain concentration. The brain and plasma concentrations of almorexant were determined by quantitative liquid chromatography/mass spectrometry/mass spectrometry (LC/MS/MS).

| SMILES | activity at all other targets tested [1] [%] | time at which half-maximal concentrations were achieved (in vivo) | Kp at 0.5 h (in vivo; ip, 30 mg/kg) |
| --- | --- | --- | --- |
| Cc1nc2ccc(NC(=O)Nc3ccnc4cccnc34)cc2o1.Cl [SB-334867, 1-(2-methylbenzoxazol-6-yl)-3-[1], [5]naphthyridin-4-yl-urea hydrochloride] | < 40 |  |  |
| CNC(=O)[C@@H](c1ccccc1)N1CCc2cc(OC)c(OC)cc2[C@@H]1CCc1ccc(C(F)(F)F)cc1 [almorexant, (2R)-2-[(1S)-6,7-Dimethoxy-1-[2-(4-trifluoromethyl-phenyl)-ethyl]-3,4-dihydro-1H-isoquinolin-2-yl]-N-methyl-2-phenyl-acetamide] |  | 4 and 6 | 0.28 |
